# Source: ChEMBL document CHEMBL1759932, “Design, synthesis and structure-activity relationships of (indo-3-yl) heterocyclic derivatives as agonists of the CB1 receptor. Discovery of a clinical candidate” (Bioorg Med Chem Lett, 2011)
# Columns and labels:
# [1] = Clearance in ICR mouse; type: ADME, organism-based; conditions: in vivo
# [2] = Volume of distribution at steady state in ICR mouse; type: ADME, organism-based; conditions: in vivo, read-out: Vdss
# [3] = Half life in ICR mouse; type: ADME, organism-based; conditions: in vivo
# [4] = Ratio of Cmax in brain to plasma in ICR mouse; type: ADME; conditions: brain and plasma
# [5] = Intrinsic clearance in rat liver microsomes; type: ADME, Microsome
# [6] = Intrinsic clearance in human liver microsomes; type: ADME, Microsome
# [7] = Intrinsic clearance in dog hepatic microsomes; type: ADME, Canis lupus familiaris, Liver, Microsome
# [8] = Clearance in Wistar rat; type: ADME, organism-based; conditions: in vivo
# [9] = Volume of distribution at steady state in Wistar rat; type: ADME, organism-based; conditions: in vivo, read-out: Vdss
# [10] = Half life in Wistar rat; type: ADME, organism-based; conditions: in vivo
# [11] = Clearance in Beagle dog; type: ADME, organism-based, Canis lupus familiaris; conditions: in vivo
# [12] = Volume of distribution at steady state in Beagle dog; type: ADME, organism-based, Canis lupus familiaris; conditions: in vivo, read-out: Vdss
# [13] = Half life in Beagle dog; type: ADME, organism-based, Canis lupus familiaris; conditions: in vivo
# [14] = Intrinsic clearance in mouse hepatic microsomes; type: ADME, Microsome; conditions: liver microsomes
smiles,measurement,setting,value
CCc1cccc2c(-c3nsc(CN4CCCC4)n3)cn(CC3CCCCC3)c12.Cl,clearance,[1],28 mL/min/kg
same,Vd,[2],1.4 L/kg
same,half-life,[3],1.2 h
same,Kp,[4],0.05
CCc1sc(-c2cn(CC3CCOCC3)c3c(Cl)cccc23)nc1CN(CC)CCO,microsomal CLint,[5],> 270 µL/min/mg
same,microsomal CLint,[6],114 µL/min/mg
OCCN(CCO)Cc1csc(-c2cn(CC3CCOCC3)c3c(Cl)cccc23)n1,microsomal CLint,[5],> 270 µL/min/mg
same,microsomal CLint,[6],111 µL/min/mg
CC(C)N(CCO)Cc1csc(-c2cn(CC3CCOCC3)c3c(Cl)cccc23)n1,microsomal CLint,[5],> 160 µL/min/mg
same,microsomal CLint,[6],161 µL/min/mg
same,CL,[7],0.131 mL/min/kg
same,clearance,[1],159 mL/min/kg
same,Vd,[2],11.3 L/kg
same,half-life,[3],1.38 h
same,Kp,[4],3.9
same,clearance,[8],127 mL/min/kg
same,Vd,[9],15 L/kg
same,half-life,[10],1.6 h
same,clearance,[11],28 mL/min/kg
same,Vd,[12],5 L/kg
same,half-life,[13],3 h
same,microsomal CLint,[14],176 µL/min/mg
CN(CCO)Cc1csc(-c2cn(CC3CCOCC3)c3c(Cl)cccc23)n1,microsomal CLint,[5],167 µL/min/mg
same,microsomal CLint,[6],< 16 µL/min/mg
COC1CCN(Cc2csc(-c3cn(CC4CCOCC4)c4c(Cl)cccc34)n2)CC1,microsomal CLint,[5],> 270 µL/min/mg
same,microsomal CLint,[6],80.4 µL/min/mg
COCCN(C)Cc1csc(-c2cn(CC3CCCCC3)c3c(Cl)cccc23)n1,microsomal CLint,[5],22 µL/min/mg
same,microsomal CLint,[6],36 µL/min/mg
OC1CCN(Cc2csc(-c3cn(CC4CCOCC4)c4c(Cl)cccc34)n2)CC1,microsomal CLint,[5],16 µL/min/mg
same,microsomal CLint,[6],12 µL/min/mg
Clc1cccc2c(-c3nc(CN4CCOCC4)cs3)cn(CC3CCOCC3)c12,microsomal CLint,[5],> 270 µL/min/mg
same,microsomal CLint,[6],97.9 µL/min/mg
